Experimental data taken from patent publication US5371099A, “Phenyl carboxamide isoxazoles” (Roussel-Uclaf, priority 1992, dated 1994).

What was measured:
[1] = tested on: Delayed-type hypersensitivity mouse paw oedema; assay: Test 2: Delayed-type hypersensitivity mouse paw oedema (DTH-M); format: in vivo, mouse (male CD-1); conditions: po, 24 h; for inhibition in vivo at 100 mg/kg: 100 mg/kg p.o.
Description: Delayed-type hypersensitivity mouse paw oedema (DTH-M)
Groups of 8 to 10 mice, male CD-1 weighing 25-30 g were sensitized by the subcutaneous injection of 1 mg of methylated bovine serum albumin (MBSA) in 0.2 ml volumes of saline/Freund's complete adjuvant (FCA) emulsion. Negative control groups received injections of saline/FCA emulsion. DTH paw oedema responses were assessed twenty-four hours after the right hind foot pad challenge with 0.1 mg of MBSA in 0.05 ml volumes of saline on day seven after sensitization. Contralateral paws received control saline injections. The test compounds or control vehicles were orally administered daily on days four, five, six and twice on day seven, one hour before and six hours after MBSA challenge.
(§1) Doses are given in units of mg/kg p.o.

[2] = tested on: Delayed-type hypersensitivity rat paw oedema; assay: Test 3: Delayed-type hypersensitivity rat paw oedema (DTH-R)
[3] = tested on: Carrageenan rat paw oedema; assay: Test 1: Carrageenan rat paw oedema (PO-R); format: in vivo, rat (male CFHB); conditions: 3 h; for inhibition in vivo at 50 mg/kg: 50 mg/kg p.o.; for inhibition in vivo at 10 mg/kg: 10 mg/kg p.o.
Description: Carrageenan rat paw oedema (PO-R)
One hour after the oral administration of the test compounds or control vehicle to groups of 6 to 12 male CFHB rats, weighing 160-180 g, 1 mg of carrageenan dissolved in 0.2 ml of saline was injected into the right hind foot pad. Contralateral paws received control saline injections. Paw oedema responses were assessed three hours later.
as §1

[4] = Pharmacokinetic comparison, plasma concentrations of parent compound and active metabolite in mice; format: in vivo; conditions: 30 mg/kg orally
Description: A pharmacokinetic comparison was made between the compound of Example 8 in which R5 is methyl and the corresponding known compound in which R5 is hydrogen. Each compound was administered orally to mice at a dose of 30 mg/kg and plasma concentrations of the parent compound and the corresponding active metabolite were determined at various time points after administration.

[5] = Rattus norvegicus, po, 24 h, read-out: % Inhibition (Test 3, DTH-R)

| SMILES | inhibition in vivo at 100 mg/kg [1] | inhibition in vivo at 50 mg/kg [2, 5] | inhibition in vivo at 50 mg/kg [3] | inhibition in vivo at 10 mg/kg [2, 5] | other results |
| --- | --- | --- | --- | --- | --- |
| Cc1onc(C(=O)O)c1C(=O)Nc1ccc([N+](=O)[O-])cc1 [Example 1, 5-methyl-4-[N-(4-nitrophenyl)]carbamoyl-3-isoxazolecarboxylic acid] | 41% | 28% | -2% | – | – |
| Cc1onc(C(=O)O)c1C(=O)Nc1ccc(C#N)cc1 [Example 2, 4-[N-(4-cyanophenyl)]carbamoyl-5-methyl-3-isoxazolecarboxylic acid] | 27% | -47% | -25% | – | – |
| Cc1cc(NC(=O)c2c(C(=O)O)noc2C)ccc1Br [Example 3, 4-[N-(4-bromo-3-methyl)phenyl]carbamoyl-5-methyl-3-isoxazolecarboxylic acid] | 35% | -4% | -10% | – | – |
| Cc1cc(NC(=O)c2c(C(=O)O)noc2C)ccc1Cl [Example 4, 4-[N-(4-chloro-3-methyl)phenyl]carbamoyl-5-methyl-3-isoxazolecarboxylic acid] | 24% | 6% | -10% | – | – |
| Cc1cc(NC(=O)c2c(C(=O)O)noc2C)ccc1C(F)(F)F [Example 5, 5-methyl-4-[N-(3-methyl-4-trifluoromethyl)phenyl]carbamoyl-3-isoxazolecarboxylic acid] | 44% | 95% | 18% | 44% | – |
| Cc1cc(NC(=O)c2c(C(=O)O)noc2C)ccc1C#N [Example 6, 4-[N-(4-cyano-3-methyl)phenyl]carbamoyl-5-methyl-3-isoxazolecarboxylic acid] | 5% | 25% | 5% | – | – |
| Cc1onc(C(=O)O)c1C(=O)Nc1ccc(SC(F)(F)F)cc1 [Example 7, 5-methyl-4-[N-(4-trifluoromethylthio)phenyl]carbamoyl-3-isoxazolecarboxylicacid] | 14% | 73% | 1% | 42% | – |
| Cc1cc(NC(=O)c2c(C(=O)O)noc2C)ccc1OC(F)(F)F [Example 8, 5-methyl-4-[N-(3-methyl-4-trifluoromethoxy)phenyl]carbamoyl-3-isoxazolecarboxylic acid] | 48% | 79% | – | 34% | detectability of the active metabolite 24 hours after administration ([4]; plasma, 24 hours): no metabolite detectable; inhibition in vivo at 10 mg/kg [3]: 16% |
| O=C(O)c1noc(C2CC2)c1C(=O)Nc1ccc(C(F)(F)F)cc1 [Example 9, 5-cyclopropyl-4-[N-(4-trifluoromethyl)phenyl]carbamoyl-3-isoxazolecarboxylic acid] | 72% | 86% | – | 45% | pharmacokinetics compared with known compound in which R5 is hydrogen ([4]; effect of methyl substituent): improved pharmacokinetics; inhibition in vivo at 10 mg/kg [3]: -24% |
| Cc1cc(NC(=O)c2c(C(=O)O)noc2C2CC2)ccc1C(F)(F)F [Example 10, 5-cyclopropyl-4-[N-(3-methyl-4-trifluoromethyl)phenyl]carbamoyl-3-isoxazolecarboxylic acid] | 12% | 73% | 5% | – | – |
| O=C(O)c1noc(C2CC2)c1C(=O)Nc1ccc(OC(F)(F)F)cc1 [Example 11] | 65% | – | – | 95% | inhibition in vivo at 30 mg/kg ([1]; 30 mg/kg p.o.): 37%; toxicity printed in place of % Inhibition (Test 3, DTH-R) ([2]; 50 mg/kg p.o.): Toxic; inhibition in vivo at 3 mg/kg [2, 5]: 65%; inhibition in vivo at 3 mg/kg ([3]; 3 mg/kg p.o.): -2% |
| O=C(O)c1noc(C2CC2)c1C(=O)Nc1ccc(SC(F)(F)F)cc1 [Example 12, 5-cyclopropyl-4-[N-(4-trifluoromethylthio)phenyl]carbamoyl-3-isoxazolecarboxylic acid] | 36% | – | – | 75% | inhibition in vivo at 10 mg/kg [3]: 11% |
| Cc1cc(NC(=O)c2c(C(=O)O)noc2C2CC2)ccc1OC(F)(F)F [Example 13, 5-cyclopropyl-4-[N-(3-methyl-4-trifluoromethoxy)phenyl]carbamoyl-3-isoxazolecarboxylic acid] | 52% | – | – | 47% | inhibition in vivo at 10 mg/kg [3]: 5% |
| CCOC(=O)c1noc(C)c1C(=O)Nc1ccc(C(F)(F)F)c(C)c1 [Example 18, Ethyl 5-methyl-4-[N-(3-methyl-4-trifluoromethyl)phenyl]carbamoyl-3-isoxazolecarboxylate] | 3% | 50% | 23% | – | – |
| Cc1onc(C(=O)O)c1C(=O)Nc1ccc(OC(F)(F)F)cc1 [known compound, reference compound] | – | – | – | – | detectability of the active metabolite at 72 hours after administration ([4]; plasma, 72 hours): still being detectable |
